Assay results from patent US8591761B2, “Apparatus including hydrofluoroether with high temperature stability and uses thereof” (3M Innovative Properties Company, priority 2009, dated 2013).
Where two headings read alike, the source gives them in different places.

Columns and labels:
[1] = type: physicochemical; settings: for breakdown product diketone (CF3)2CFCOC2F4COCF(CF3)2: other studies; for appearance of the metal parts of the chiller: over the lifetime of the test; for changes in the composition of the circulating fluid (NMR, GC/MS): circulated through closed stainless steel loop at 150° C. for 28 days
Experimental: The long term stability of HC6F12CH2OCF2CFHCF3 in a commercial chiller unit was tested. The chiller used for this test was a Lydall Affinity Chiller, model PWL-003 KBE48CBC3 with an operating range of 10° C. to 200° C. HC6F12CH2OCF2CFHCF3 was circulated through a closed stainless steel loop at 150° C. for 28 days. During this time the chiller operated continuously except for short periods for taking samples in which the fluid was cooled to room temperature before the sample was removed. […] The composition of the circulating fluid was analyzed by GC/MS periodically (on days 1, 3, 6, 13, 20, and 28) to determine whether any changes in the fluid had occurred. Fluorine NMR analysis of the fluid before the testing and after completion of the testing was also carried out. […] A very small level of HF (1.4 ppm) was observed initially and this value decreased to 0 ppm by day 13. HF was also monitored in the liquid phase by titration and never exceeded a value of 0.52 ppm.
A comparative hydrofluoroether 2,3,3,4,4-pentafluoro-2,5-bis(perfluoropropan-2-yl)-5-ethoxytetrahydrofuran (II) was also tested multiple times in this same system under the same conditions. The composition of this fluid was monitored periodically over about thirty days for composition changes from the input material. […] HF was also monitored in the liquid phase by titration and ranged between 0.34 and 0.36 ppm. […] Depending on the study this corrosion varied between quite marked with the formation of black or greenish deposits to less obvious but still showing significant signs of a corrosive agent derived from the fluid. This corrosion as well as the formation of the diketone breakdown product rendered this material unacceptable for use in such a high temperature heat transfer application.
Furthermore, the heat transfer fluid that includes the hydrofluoroether compound from Example 1 was tested for long term stability in a commercial chiller unit as described in Example 3. […] As a comparison, the compound from Comparative Example 1 was put through the same test.

[2] = type: physicochemical; settings: for stability of the HFE to temperature (conclusion from ketone concentration): heated at 150° C. for 8 days
Experimental: Stability testing was carried out by heating of the various samples in clean, PYREX glass round bottom flasks at the temperatures noted below.
The stability of H(CF2CF2)3CH2OCF2CFHCF3 was tested by placing a portion of the ether, prepared essentially as described in Example 1 and treated with both HF and potassium permanganate, (˜100 g) into a new PYREX glass flask containing a reflux condenser under nitrogen and heating to 150° C. for 36 days. Samples of the liquid were taken at 7, 14, 26 and 36 day time intervals and the composition was monitored by GC/MS for breakdown products of the parent molecule. […] The compositional analysis (GC/MS and GC-FID) verified this conclusion. After this heating period, the sample was then heated to 180° C. for an additional 14 days.
The stability of H(CF2CF2)3CH2OCF2CFHOCF3 was tested by placing a portion of the ether, prepared as described above, (75 g) into a flask containing a reflux condenser under nitrogen and heating while stirring magnetically to 175° C. for 15 days. Samples of the liquid were taken at 1, 2, 3, 4, 7, 8, 9, 11 and 15 day time intervals and analyzed by gas chromatography. In addition, the starting material and the material at the end of the heating period were analyzed by GC/MS for breakdown products of the parent molecule.
Stability testing in glass was carried out by placing about 100 g of the ether in a 500 ml, round bottom flask equipped with a water condenser and heated with magnetic stirring to 150° C. for seven days. Samples of the liquid were taken on days 1, 2, 3, 4, and 7 and analyzed by gas chromatography, HF gas probe, and pH paper. After one day, the pH had dropped from the initial value neutral value of 7 to 5 and remained at that level the remainder of the test.
(§1) 50 grams of the hydrofluoroether was charged to a 50 mL round bottom flask. The material was heated at 150° C. for 8 days with samples taken at day 1, 2, 3, 6, and 8. The primary breakdown product from the parent molecule that was monitored was the ketone intermediate, C3F7OCF(CF3)CF2OCF(CF3)C(O)CF2CF3. This was monitored using GC-FID.
as §1, with “5, 7,” for “3, 6,”
50 g of the hydrofluoroether was charged to a 50 mL round bottom flask. The material was heated at 150° C. for 7 days with samples taken at days 3, 5, and 7 days. The primary breakdown products from the parent molecule that were monitored was vinyl ether, C4F9OCF(CF3)CF2OCF═CF2 and the hydride C4F9OCF(CF3)CF2OCFHCF3. These were monitored using GC-FID.
50 g of the hydrofluoroether was charged to a 50 mL round bottom flask. […] The primary breakdown products from the parent molecule that were monitored was vinyl ether, C3F7(OCF(CF3)CF2)2OCF═CF2 and the hydride C3F7(OCF(CF3)CF2)2OCF═HCF3. These were monitored using GC-FID.

CCOC1(C(F)(C(F)(F)F)C(F)(F)F)OC(F)(C(F)(C(F)(F)F)C(F)(F)F)C(F)(F)C1(F)F (centres unmarked) [Comparative Example 1, 2,3,3,4,4-pentafluoro-2,5-bis(perfluoropropan-2-yl)-5-ethoxytetrahydrofuran]
stability of the parent molecule (conclusion from diketone formation) [1]: not stable
breakdown product diketone (CF3)2CFCOC2F4COCF(CF3)2 ([1]; 150° C., at 7 days): 472 ppm
breakdown product diketone (CF3)2CFCOC2F4COCF(CF3)2 ([1]; 150° C., at 28 days): 195 ppm
appearance of the metal parts of the chiller ([1]; 150° C.): considerable corrosion
appearance of the metal parts of the chiller ([1]; 150° C., listed as II): noticeable corrosion
ppm F (HF levels in the liquid phase) ([2]; 150° C., Day 0): <0.1 ppm
ppm F (HF levels in the liquid phase) ([2]; 150° C., Day 1): 1.0 ppm
ppm F (HF levels in the liquid phase) ([2]; 150° C., Day 2): 1.8 ppm
ppm F (HF levels in the liquid phase) ([2]; 150° C., Day 3): 2.6 ppm
ppm F (HF levels in the liquid phase) ([2]; 150° C., Day 4): 3.2 ppm
ppm F (HF levels in the liquid phase) ([2]; 150° C., Day 7): 3.9 ppm
pH (pH paper) ([2]; 150° C., after one day, remained at that level the remainder of the test): 5
HF level in the headspace (PortaSens probe) ([2]; 150° C., day 3, maximum level which the probe could detect, did not change for remainder of test): 27 ppm
decomposition product diketone (CF3)2CFCOC2F4COCF(CF3)2 level ([2]; 150° C., day 7): 1648 ppm
pH (pH paper) ([2]; initial value, before heating): 7

CCOC(F)(C(F)(F)C(F)(F)F)C(F)(OC(F)(F)C(F)(OC(F)(F)C(F)(F)C(F)(F)F)C(F)(F)F)C(F)(F)F (centres unmarked) [Comparative Example 2, 3-ethoxy-1,1,1,2,2,3,4,5,5,5-decafluoro-4-(1,1,2,3,3,3-hexafluoro-2-heptafluoropropyloxypropoxy)pentane]
ppm Ketone (breakdown product C3F7OCF(CF3)CF2OCF(CF3)C(O)CF2CF3, GC-FID) ([2]; 150° C., Day 1): 140 ppm
ppm Ketone (breakdown product C3F7OCF(CF3)CF2OCF(CF3)C(O)CF2CF3, GC-FID) ([2]; 150° C., Day 2): 300 ppm
ppm Ketone (breakdown product C3F7OCF(CF3)CF2OCF(CF3)C(O)CF2CF3, GC-FID) ([2]; 150° C., Day 3): 503 ppm
ppm Ketone (breakdown product C3F7OCF(CF3)CF2OCF(CF3)C(O)CF2CF3, GC-FID) ([2]; 150° C., Day 6): 1000 ppm
ppm Ketone (breakdown product C3F7OCF(CF3)CF2OCF(CF3)C(O)CF2CF3, GC-FID) ([2]; 150° C., Day 8): 1200 ppm
stability of the HFE to temperature (conclusion from ketone concentration) [2]: not exceptionally stable

COC(F)(C(F)(F)C(F)(F)F)C(F)(OC(F)(F)C(F)(OC(F)(F)C(F)(F)C(F)(F)F)C(F)(F)F)C(F)(F)F (centres unmarked) [Comparative Example 3, 3-methoxy-1,1,1,2,2,3,4,5,5,5-decafluoro-4-(1,1,2,3,3,3-hexafluoro-2-heptafluoropropyloxypropoxy)pentane]
ppm Ketone (breakdown product C3F7OCF(CF3)CF2OCF(CF3)C(O)CF2CF3, GC-FID) ([2]; 150° C., Day 1): 50 ppm
ppm Ketone (breakdown product C3F7OCF(CF3)CF2OCF(CF3)C(O)CF2CF3, GC-FID) ([2]; 150° C., Day 2): 50 ppm
ppm Ketone (breakdown product C3F7OCF(CF3)CF2OCF(CF3)C(O)CF2CF3, GC-FID) ([2]; 150° C., Day 5): 50 ppm
ppm Ketone (breakdown product C3F7OCF(CF3)CF2OCF(CF3)C(O)CF2CF3, GC-FID) ([2]; 150° C., Day 7): 50 ppm
stability of the HFE to temperature (conclusion from ketone concentration) [2]: not exceptionally stable

CCOC(F)(F)C(F)(OC(F)(F)C(F)(OC(F)(F)C(F)(F)C(F)(F)C(F)(F)F)C(F)(F)F)C(F)(F)F (centres unmarked) [Comparative Example 4, 1-(1-{[1-(ethoxydifluoromethyl)-1,2,2,2-tetrafluoroethoxy]-difluoromethyl}-1,2,2,2-tetrafluoroethoxy)-1,1,2,2,3,3,4,4,4-nonafluorobutane]
% Breakdown products (sum of vinyl ether and hydride, GC-FID) ([2]; 150° C., Day 0): 0%
% Breakdown products (sum of vinyl ether and hydride, GC-FID) ([2]; 150° C., Day 3): 0.18%
% Breakdown products (sum of vinyl ether and hydride, GC-FID) ([2]; 150° C., Day 5): 0.32%
% Breakdown products (sum of vinyl ether and hydride, GC-FID) ([2]; 150° C., Day 7): 0.49%

CCOC(F)(F)C(F)(OC(F)(F)C(F)(OC(F)(F)C(F)(OC(F)(F)C(F)(F)C(F)(F)F)C(F)(F)F)C(F)(F)F)C(F)(F)F (centres unmarked) [Comparative Example 5, 1-{1-[(1-{[1-(ethoxydifluoromethyl)-1,2,2,2-tetrafluoroethoxy]difluoro-methyl}-1,2,2,2-tetrafluoroethoxy)difluoromethyl]-1,2,2,2-tetrafluoroethoxy}-1,1,2,2,3,3,3-heptafluoro-propane]
% Breakdown products (sum of vinyl ether and hydride, GC-FID) ([2]; 150° C., Day 0): 0%
% Breakdown products (sum of vinyl ether and hydride, GC-FID) ([2]; 150° C., Day 2.75): 0.18%
% Breakdown products (sum of vinyl ether and hydride, GC-FID) ([2]; 150° C., Day 4.75): 0.38%
% Breakdown products (sum of vinyl ether and hydride, GC-FID) ([2]; 150° C., Day 6.75): 0.45%
% Breakdown products (sum of vinyl ether and hydride, GC-FID) ([2]; 150° C., Day 9.75): 0.55%
% Breakdown products (sum of vinyl ether and hydride, GC-FID) ([2]; 150° C., Day 18.75): 1.59%

FC(C(F)(F)F)C(F)(F)OCC(F)(F)C(F)(F)C(F)(F)C(F)(F)C(F)(F)C(F)F (centres unmarked) [Example 1, 7-(1,1,2,3,3,3-hexafluoropropoxy)-1,1,2,2,3,3,4,4,5,5,6,6-dodecafluoroheptane]
HF level in head space of the chiller ([1]; 150° C., by day 13): 0 ppm
increase in HF levels in head space of the chiller (PortaSens HF gas detector probe) ([1]; 150° C., entire 28 day heating period): detected no increase in the HF levels
HF level in head space of the chiller ([1]; 150° C., observed initially): 1.4 ppm
HF in the liquid phase by titration ([1]; 150° C., over the chiller test (about 28-30 days)): ≤ 0.52 ppm
appearance of the metal parts of the chiller ([1]; 150° C.): essentially unchanged
changes in the composition of the circulating fluid (NMR, GC/MS) [1]: no significant deterioration
changes in the composition of the circulating fluid (NMR, GC/MS) ([1]; listed as HC6F12CH2OCF2CFHCF3): No changes in the composition of the fluid were observed
changes in product purity / breakdown products of the parent molecule (GC/MS, GC-FID) ([2]; PYREX glass flask, reflux condenser, under nitrogen, 150° C. for 36 days): No changes in product purity were observed
breakdown products ([2]; after 36 days at 150° C., heated to 180° C. for an additional 14 days): No breakdown products were observed
HF in head space of the flask (PortaSens HF gas detector probe) ([2]; entire 50 day heating period (150° C. 36 days, 180° C. 14 days)): detected no HF

FC(OC(F)(F)F)C(F)(F)OCC(F)(F)C(F)(F)C(F)(F)C(F)(F)C(F)(F)C(F)F (centres unmarked) [Example 2, 1,1,2,2,3,3,4,4,5,5,6,6-dodecafluoro-7-(1,1,2-trifluoro-2-trifluoromethoxyethoxy)heptane]
changes in product purity (gas chromatography, GC/MS) ([2]; flask, reflux condenser, under nitrogen, 175° C. for 15 days): No changes in product purity were observed
